From patent US20090221624A1, “4-AMINOQUINOLINE COMPOUNDS FOR TREATING VIRUS-RELATED CONDITIONS” (priority 2005, published 2009)
pEC50: −log10 of the molar value.

Assays:
[1] = tested on: HCV replicon (Clone A cells, Huh7, subgenomic hepatits C virus RNA); assay: HCV Neo screening assay (HCV replicon, NPTII ELISA); format: cell-based, hepatitis C virus; conditions: for inhibition at 25 µM / pEC50: Hepatitis C virus, Huh-7; for inhibition at 25 µM: primary screening, 25 μM final concentration, 24 hours, percent inhibition of viral replication, read-out: HCV Inh; for pEC50: Secondary Data, HCV; for HCV TI: therapeutic index CC50/EC50, HCV
RSV minigenome = assay: RSV minigenome-dependent β-galactosidase expression assay (RSV β-Gal); format: cell-based, respiratory syncytial virus; conditions: for pEC50 / inhibition at 25 µM: human respiratory syncytial virus; for pEC50: Secondary Data, RSV, read-out: RSV EC50; for inhibition at 25 µM: primary screening, 25 μM final concentration, 24 hours, percent inhibition of viral replication, read-out: RSV Inh; for RSV TI: therapeutic index CC50/EC50, RSV
WNV (WN-hRuPac cells) = assay: WNV antiviral activity, WN-hRuPac cells, Renilla luciferase; format: cell-based, West Nile virus; conditions: for pEC50 / inhibition at 25 µM: West Nile virus; for pEC50: Secondary Data, WNV, read-out: WNV EC50; for inhibition at 25 µM: primary screening, 25 μM final concentration, 24 hours, percent inhibition of viral replication, read-out: WNV Inh; for WNV TI: therapeutic index CC50/EC50, WNV
YFV (YF-hRuPac cells) = assay: microbe, parasite or virus in culture; format: cell-based, yellow fever virus; conditions: for inhibition at 25 µM / pEC50: Yellow fever virus; for inhibition at 25 µM: 24 h, read-out: YFV Inh; for pEC50: read-out: YFV EC50
DNG (D2-hRuPac cells) = assay: DNG antiviral activity, D2-hRuPac cells, Renilla luciferase; format: cell-based, Dengue fever virus; conditions: Dengue virus, secondary screening
EBOV minigenome = assay: microbe, parasite or virus in culture; format: cell-based, Ebola virus; conditions: Zaire ebolavirus; for inhibition at 25 µM: 24 h, read-out: EBOV Inh; for pEC50: read-out: EBOV EC50
SINV (SR19-F-luc cells) = assay: SINV antiviral activity, SR19-F-luc cells, Firefly luciferase; format: cell-based; conditions: Sindbis virus; for inhibition at 25 µM: primary screening, 25 μM final concentration, 24 hours, percent inhibition of viral replication, read-out: SINV Inh; for pEC50: secondary screening, SR19-F-luc cells

| SMILES | inhibition at 25 µM [1] [%] | pEC50 (RSV minigenome) | inhibition at 25 µM (RSV minigenome) [%] | RSV TI (RSV minigenome) | pEC50 (WNV (WN-hRuPac cells)) | inhibition at 25 µM (WNV (WN-hRuPac cells)) [%] | WNV TI (WNV (WN-hRuPac cells)) | YFV TI (YFV (YF-hRuPac cells)) | pEC50 (YFV (YF-hRuPac cells)) | pEC50 (DNG (D2-hRuPac cells)) | inhibition at 25 µM (EBOV minigenome) [%] | pEC50 (EBOV minigenome) | pEC50 (SINV (SR19-F-luc cells)) | CC50 (in vitro; DNG CC50) [µM] | CC50 (in vitro; EBOV CC50) [µM] | CC50 (in vitro; HCV CC50) [µM] | CC50 (in vitro; RSV CC50) [µM] | CC50 (in vitro; SINV CC50) [µM] | CC50 (in vitro; WNV CC50) [µM] | CC50 (in vitro; YFV CC50) [µM] | also measured |
| --- | --- | --- | --- | --- | --- | --- | --- | --- | --- | --- | --- | --- | --- | --- | --- | --- | --- | --- | --- | --- | --- |
| CCOC(=O)c1cnc2ccc(C)cc2c1NCc1ccco1 [Compound 39] | 22.4 | 5.83 | 91.6 | 18.33 | 5.26 | 102 | 4.94 | 8.95 | 5.52 | 5.15 | 64.1 | 5.14 | ≤ 4.12 | 26.9 | 26.9 | ≥ 75 | 26.9 | 26.9 | 26.9 | 26.9 | inhibition at 25 µM (YFV (YF-hRuPac cells)): 96.6%; inhibition at 25 µM (SINV (SR19-F-luc cells)): 71.9% |
| COC(=O)c1ccc(Nc2c3c(nc4ccccc24)CCC3)cc1 [Compound 8] | 98.9 | 5.01 | 75.5 | 7.73 | 4.23 | 49 | 1.27 | 2.91 | 4.59 | 4.21 | 4.74 | 4.26 | 4.62 | ≥ 75 | ≥ 75 | 71.6 | ≥ 75 | ≥ 75 | ≥ 75 | ≥ 75 | pEC50 [1]: 6.89; HCV TI [1]: 550.77; inhibition at 25 µM (YFV (YF-hRuPac cells)): 66.8%; inhibition at 25 µM (SINV (SR19-F-luc cells)): 34.9% |
| Cc1cc(Nc2cccc(Cl)c2C)c2cccc(C)c2n1 [Compound 65] | 114 | 5.71 | 96.6 | 38.46 | 5.24 | 80.6 | 13.11 | – | ≤ 4.12 | ≤ 4.12 | 81.8 | 4.31 | ≤ 4.12 | ≥ 75 | ≥ 75 | 13 | ≥ 75 | ≥ 75 | ≥ 75 | ≥ 75 | pEC50 [1]: 5.07; HCV TI [1]: 1.53; inhibition at 25 µM (YFV (YF-hRuPac cells)): 76.3%; inhibition at 25 µM (SINV (SR19-F-luc cells)): 72.2% |
| Cc1cc(C)c2nc(C)cc(Nc3ccc(OCc4ccccc4)cc3)c2c1 [Compound 44] | 94.7 | 5.41 | 98.9 | 7.06 | 5.37 | 99.9 | 6.39 | 12.12 | 5.65 | 5.47 | 99.6 | 4.12 | 5.45 | 27.4 | 27.4 | 5.05 | 27.4 | 27.4 | 27.4 | 27.4 | pEC50 [1]: 5.53; HCV TI [1]: 1.72; inhibition at 25 µM (YFV (YF-hRuPac cells)): 100%; inhibition at 25 µM (SINV (SR19-F-luc cells)): 95.8% |
| Cc1ccc2nc3c(c(Nc4cccc(C(F)(F)F)c4)c2c1)CCC3 [Compound 26] | 148 | 5.39 | 99.9 | 12.95 | 5.43 | 62.2 | 14.32 | 8.88 | 5.22 | 4.32 | 38.8 | 4.12 | 4.73 | 53.1 | 53.1 | 8.35 | 53.1 | 53.1 | 53.1 | 53.1 | pEC50 [1]: 5.12; HCV TI [1]: 1.1; inhibition at 25 µM (YFV (YF-hRuPac cells)): 77.2%; inhibition at 25 µM (SINV (SR19-F-luc cells)): 53.3% |
| CCOC(=O)c1ccc(Nc2cc(C)nc3c2ccc2ccccc23)cc1 [Compound 4] | 105 | 4.43 | 47.7 | 1.97 | ≤ 4.12 | 28.4 | 0.97 | 17.1 | 5.37 | 4.49 | 6.57 | 4.23 | ≤ 4.12 | 72.9 | 72.9 | 32.5 | 72.9 | 72.9 | 72.9 | 72.9 | pEC50 [1]: 4.81; HCV TI [1]: 2.08; inhibition at 25 µM (YFV (YF-hRuPac cells)): 81.7%; inhibition at 25 µM (SINV (SR19-F-luc cells)): -22.2% |
| CCc1ccccc1Nc1c2ccccc2nc2ccccc12 [Compound 2] | 154 | 5.89 | 99.8 | 25.33 | 4.75 | 49.6 | 1.85 | 4.95 | 5.18 | 4.67 | 20.1 | 4.41 | 4.71 | 32.9 | 32.9 | 6.12 | 32.9 | 32.9 | 32.9 | 32.9 | pEC50 [1]: 5.10; HCV TI [1]: 0.77; inhibition at 25 µM (YFV (YF-hRuPac cells)): 71.8%; inhibition at 25 µM (SINV (SR19-F-luc cells)): 70.2% |
| Cc1cc(NNC(=O)OCc2ccccc2)c2ccccc2n1 [Compound 78] | – | 5.86 | – | 37.03 | ≤ 4.12 | – | 0.68 | 2.95 | 4.76 | 4.24 | 42.3 | 4.12 | 5.12 | 51.1 | 51.1 | ≥ 75 | 51.1 | 51.1 | 51.1 | 51.1 | – |
